According to ChEMBL document CHEMBL1201862, “PubChem BioAssay data set” (2004):
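Step 1: Grow cells in 96-well plates. Step 2: Expose to compound for 48 hours at 5 concentrations. Step 3: Interpolate endpoints linearly; if unreached, use highest concentration. GI50 is the concentration that inhibits growth by half.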 Active and inactive are the calls of the source. Cut-off read from the data, not from the text of the source: active = GI50 up to about 1.1 µM and inactive = higher. Where a SMILES comes first, the peptide text is derived from it. The star is where a group is joined. Boc = CC(C)(C)OC(=O)*

Tests used:
Test in all cases: NCI anticancer screen, dose series, 48 h
XF498 = system: XF498
MDA-MB-435 = system: MDA-MB-435
PC-3 = system: PC-3
Hs-578T = system: Hs-578T
MDA-N = system: MDA-N
DU-145 = system: DU-145
MDA-MB-231 = system: MDA-MB-231
786-0 = system: 786-0
RXF 631 = system: RXF 631

| Structure (SMILES) | GI50 (XF498) | GI50 (PC-3) | GI50 (Hs-578T) | GI50 (DU-145) | GI50 (MDA-MB-231) | GI50 (786-0) | GI50 (RXF 631) | also measured |
| --- | --- | --- | --- | --- | --- | --- | --- | --- |
| Cc1nc2ccccc2c(=O)n1Nc1ccc(C(=O)O)cc1 | > 100 µM (inactive) |  |  |  |  |  |  |  |
| c1ccc2c3c(ccc2c1)-c1[nH]ncc1CCO3 | 32.4 µM (inactive) |  |  |  |  |  |  |  |
| C=C(C)[C@@H]1CC[C@@H]2C(=CC[C@]3(C)C([C@H](C)CC/C=C(/C)C(=O)O)CC[C@@]23C)[C@@]1(C)CCC(=O)O (stereo partly drawn) |  | 24.9 µM (inactive) | 33.3 µM (inactive) | 24.2 µM (inactive) | 25.2 µM (inactive) | 21.8 µM (inactive) |  | GI50 (MDA-MB-435): 29.2 µM (inactive); GI50 (MDA-N): 28.3 µM (inactive) |
| O=C(c1ccccc1)c1nc2ccc(Cl)cc2c2c1CCCO2 | 65.9 µM (inactive) |  |  |  |  |  |  |  |
| CCOCNC(=O)N(COCC)COCC | > 100 µM (inactive) |  |  |  |  |  | > 100 µM (inactive) |  |
| CN1NC(c2ccc(Cl)cc2)=C(C#N)C(=O)CC1c1ccccc1 (stereo not drawn) |  |  |  |  |  | > 100 µM (inactive) | > 100 µM (inactive) |  |
| O=C(Cc1nc2ccc(C(=O)c3ccccc3)cc2nc1O)C(=O)Nc1nc2ccccc2[nH]1 |  |  |  |  |  | > 100 µM (inactive) | 65.5 µM (inactive) |  |
| CC1C2CC(CC2O)C1(C)C (stereo not drawn) |  | > 100 µM (inactive) | > 100 µM (inactive) | > 100 µM (inactive) | > 100 µM (inactive) | > 100 µM (inactive) |  | GI50 (MDA-MB-435): > 100 µM (inactive); GI50 (MDA-N): > 100 µM (inactive) |
| CC(=O)NNc1nc(C)c(C(=O)NNC(=O)C(=O)Nc2ccccc2C#N)s1 |  |  |  |  |  | > 100 µM (inactive) | > 100 µM (inactive) |  |
| COC(=O)c1cccc(N[C@@H]2c3cc4c(cc3C(c3cc(OC)c(O)c(OC)c3)[C@H]3C(=O)OCC32)OCO4)c1 (stereo partly drawn) | 0.701 µM (active) |  |  |  |  |  |  |  |
| COc1cc(O)c2c(=O)cc(C3(O)C=CC(=O)C=C3)oc2c1 |  | 0.131 µM (active) | 0.968 µM (active) | 0.839 µM (active) | 0.327 µM (active) |  |  |  |
| COc1ccc(-c2cc(O)c3ccc(C)nc3n2)cc1 |  |  | > 100 µM (inactive) | > 100 µM (inactive) | > 100 µM (inactive) |  |  |  |
| CC(C)(C)OC(=O)NC(Cc1ccccc1)C(=O)N1CCCC1C(N)=O (stereo not drawn) (Boc-Phe-Pro-NH2; configuration not given here) |  | > 100 µM (inactive) |  | > 100 µM (inactive) | > 100 µM (inactive) |  |  | GI50 (MDA-MB-435): > 100 µM (inactive); GI50 (MDA-N): > 100 µM (inactive) |
